Source: US11891365B2, “3-alkyl-4-amido-bicyclic [4,5,0] hydroxamic acids as HDAC inhibitors” (Valo Health, Inc., priority 2015, dated 2024)

Biological target: T1, Full length human recombinant HDAC6 protein (Homo sapiens, UniProt Q9UBN7)
T1 sequence (Q9UBN7 1-1215): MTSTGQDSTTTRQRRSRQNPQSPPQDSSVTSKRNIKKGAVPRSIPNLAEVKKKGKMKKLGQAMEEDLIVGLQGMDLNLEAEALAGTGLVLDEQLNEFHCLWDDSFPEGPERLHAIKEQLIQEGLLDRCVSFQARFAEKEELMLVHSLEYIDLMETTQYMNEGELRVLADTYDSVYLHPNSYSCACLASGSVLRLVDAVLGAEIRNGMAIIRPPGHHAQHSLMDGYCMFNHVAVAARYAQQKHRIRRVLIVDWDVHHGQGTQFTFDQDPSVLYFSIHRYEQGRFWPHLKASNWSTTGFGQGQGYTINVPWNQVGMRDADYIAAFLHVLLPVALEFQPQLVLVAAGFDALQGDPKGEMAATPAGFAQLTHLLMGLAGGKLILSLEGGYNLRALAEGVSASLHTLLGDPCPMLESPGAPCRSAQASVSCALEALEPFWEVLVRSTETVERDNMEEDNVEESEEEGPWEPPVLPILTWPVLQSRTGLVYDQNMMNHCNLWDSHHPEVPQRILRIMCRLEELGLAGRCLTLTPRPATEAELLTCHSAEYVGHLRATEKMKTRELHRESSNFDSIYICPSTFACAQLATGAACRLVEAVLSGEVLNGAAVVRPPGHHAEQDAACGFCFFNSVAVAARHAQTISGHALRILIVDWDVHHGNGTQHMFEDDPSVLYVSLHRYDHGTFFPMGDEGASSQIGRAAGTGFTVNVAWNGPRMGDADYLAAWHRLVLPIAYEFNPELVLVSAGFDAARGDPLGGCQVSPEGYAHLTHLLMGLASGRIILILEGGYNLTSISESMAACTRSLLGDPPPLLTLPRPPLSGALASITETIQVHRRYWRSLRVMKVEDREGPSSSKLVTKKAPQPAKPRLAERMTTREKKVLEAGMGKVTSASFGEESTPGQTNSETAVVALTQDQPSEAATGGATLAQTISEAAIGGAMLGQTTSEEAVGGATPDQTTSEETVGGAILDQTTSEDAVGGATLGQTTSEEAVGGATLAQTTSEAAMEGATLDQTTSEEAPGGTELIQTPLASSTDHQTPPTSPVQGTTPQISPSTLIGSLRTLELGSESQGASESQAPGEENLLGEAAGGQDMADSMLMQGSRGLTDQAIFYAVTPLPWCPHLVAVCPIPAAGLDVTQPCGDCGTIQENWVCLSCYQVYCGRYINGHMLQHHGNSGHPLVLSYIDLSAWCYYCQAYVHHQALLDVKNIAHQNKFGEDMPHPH
Assay: In vitro histone deacetylase assay: enzymatic HDAC6 electrophoretic mobility shift assay
Format: biochemical
Details: 1 nM enzyme, 2 μM peptide substrate RHKK(Ac)-NH2, 25° C., 12 concentrations; read-out: Inhibitory Concentration (IC50) Values against HDAC6, Activity Range

SMILES | IC50 [µM]
CC(C)(C)C(=O)N1CCOc2cc(C(=O)NO)ccc2C1 [N-hydroxy-4-pivaloyl-2,3,4,5-tetrahydrobenzo[f][1,4]oxazepine-8-carboxamide] | ≤ 0.1
C[C@H]1COc2cc(C(=O)NO)ccc2CN1C(=O)[C@@H]1CCOC1 [(S)-N-hydroxy-3-methyl-4-((R)-tetrahydrofuran-3-carbonyl)-2,3,4,5-tetrahydrobenzo[f][1,4]oxazepine-8-carboxamide] | ≤ 0.1
COC1CCC(C(=O)N2Cc3ccc(C(=O)NO)cc3OC[C@@H]2C)CC1 (single isomer, unassigned) | ≤ 0.1
C[C@H]1COc2cc(C(=O)NO)ccc2CN1C(=O)[C@@H]1CCCOC1 [(S)-N-hydroxy-3-methyl-4-((R)-tetrahydro-2H-pyran-3-carbonyl)-2,3,4,5-tetrahydrobenzo[f][1,4]oxazepine-8-carboxamide] | ≤ 0.1
CC(C)[C@H]1c2ccc(C(=O)NO)cc2OCCN1C(=O)C1CCOCC1 [(S)-N-hydroxy-5-isopropyl-4-(tetrahydro-2H-pyran-4-carbonyl)-2,3,4,5-tetrahydrobenzo[f][1,4]oxazepine-8-carboxamide] | > 0.5
Cc1cc(C)c(CC(=O)N2CCOc3cc(C(=O)NO)ccc3C2)c(C)c1 [N-hydroxy-4-(2-mesitylacetyl)-2,3,4,5-tetrahydrobenzo[f][1,4]oxazepine-8-carboxamide] | ≤ 0.1
COCC1(C(=O)N2Cc3ccc(C(=O)NO)cc3OC[C@@H]2C)COC1 [(S)-N-hydroxy-4-(3-(methoxymethyl)oxetane-3-carbonyl)-3-methyl-2,3,4,5-tetrahydrobenzo[f][1,4]oxazepine-8-carboxamide] | ≤ 0.1
CC1(C(=O)N2Cc3ccc(C(=O)NO)cc3O[C@H](c3ccccc3)C2)CCC1 [(R)-N-hydroxy-4-(1-methylcyclobutane-1-carbonyl)-2-phenyl-2,3,4,5-tetrahydrobenzo[f][1,4]oxazepine-8-carboxamide] | 0.1 to 0.5
C[C@H]1COc2cc(C(=O)NO)ccc2CN1C(=O)C1CS(=O)(=O)C1 [(S)-4-(1,1-dioxidothietane-3-carbonyl)-N-hydroxy-3-methyl-2,3,4,5-tetrahydrobenzo[f][1,4]oxazepine-8-carboxamide] | ≤ 0.1
CC(C)COCC(=O)N1CCOc2cc(C(=O)NO)ccc2C1 [N-hydroxy-4-(2-isobutoxyacetyl)-2,3,4,5-tetrahydrobenzo[f][1,4]oxazepine-8-carboxamide] | > 0.5
COCC1(C(=O)N2CCOc3cc(C(=O)NO)ccc3[C@@H]2C)COC1 [(S)-N-hydroxy-4-(3-(methoxymethyl)oxetane-3-carbonyl)-5-methyl-2,3,4,5-tetrahydrobenzo[f][1,4]oxazepine-8-carboxamide] | ≤ 0.1
O=C(NO)c1ccc2c(c1)OCCN(C(=O)CN1CCOCC1)C2 [N-hydroxy-4-(2-morpholinoacetyl)-2,3,4,5-tetrahydrobenzo[f][1,4]oxazepine-8-carboxamide] | > 0.5
Cc1nnnn1C(C(=O)N1CCOc2cc(C(=O)NO)ccc2C1)c1ccccc1 (centres unmarked) [N-hydroxy-4-(2-(5-methyl-1H-tetrazol-1-yl)-2-phenylacetyl)-2,3,4,5-tetrahydrobenzo[f][1,4]oxazepine-8-carboxamide] | 0.1 to 0.5
COC[C@H]1CN(C=O)Cc2ccc(C(=O)NO)cc2O1 [(R)-4-formyl-N-hydroxy-2-(methoxymethyl)-2,3,4,5-tetrahydrobenzo[f][1,4]oxazepine-8-carboxamide] | ≤ 0.1
C[C@H](C(=O)N1CCOc2cc(C(=O)NO)ccc2C1)c1ccccc1 [(S)-N-hydroxy-4-(2-phenylpropanoyl)-2,3,4,5-tetrahydrobenzo[f][1,4]oxazepine-8-carboxamide] | 0.1 to 0.5
CC(C)(C(=O)N1CCOc2cc(C(=O)NO)ccc2C1)c1ccc2c(c1)OCCO2 [4-(2-(2,3-dihydrobenzo[b][1,4]dioxin-6-yl)-2-methylpropanoyl)-N-hydroxy-2,3,4,5-tetrahydrobenzo[f][1,4]oxazepine-8-carboxamide] | 0.1 to 0.5

SMILES | IC50 [µM]
C[C@H]1COc2cc(C(=O)NO)ccc2CN1C(=O)C1CCS(=O)(=O)CC1 [(S)-4-(1,1-dioxidotetrahydro-2H-thiopyran-4-carbonyl)-N-hydroxy-3-methyl-2,3,4,5-tetrahydrobenzo[f][1,4]oxazepine-8-carboxamide] | ≤ 0.1
Cn1cc(C(=O)N2CCOc3cc(C(=O)NO)ccc3C2)ccc1=O [N-hydroxy-4-(1-methyl-6-oxo-1,6-dihydropyridine-3-carbonyl)-2,3,4,5-tetrahydrobenzo[f][1,4]oxazepine-8-carboxamide] | > 0.5
C[C@H]1COc2cc(C(=O)NO)ccc2CN1C(=O)C(C)(C)CO [(S)-N-hydroxy-4-(3-hydroxy-2,2-dimethylpropanoyl)-3-methyl-2,3,4,5-tetrahydrobenzo[f][1,4]oxazepine-8-carboxamide] | ≤ 0.1
Cc1cccc(C)c1C(=O)N1CCOc2cc(C(=O)NO)ccc2C1 [4-(2,6-dimethylbenzoyl)-N-hydroxy-2,3,4,5-tetrahydrobenzo[f][1,4]oxazepine-8-carboxamide] | 0.1 to 0.5
CC(=O)N1CCC(C(=O)N2Cc3ccc(C(=O)NO)cc3OC[C@@H]2C)CC1 [(S)-4-(1-acetylpiperidine-4-carbonyl)-N-hydroxy-3-methyl-2,3,4,5-tetrahydrobenzo[f][1,4]oxazepine-8-carboxamide] | ≤ 0.1
C[C@H]1COc2cc(C(=O)NO)ccc2CN1C(=O)[C@@H]1CC2CCC1O2 (stereo partly drawn) [(3S)-4-((2R)-7-oxabicyclo[2.2.1]heptane-2-carbonyl)-N-hydroxy-3-methyl-2,3,4,5-tetrahydrobenzo[f][1,4]oxazepine-8-carboxamide] | ≤ 0.1
O=C(NO)c1ccc2c(c1)OCCN(C(=O)C1OC3(CCNCC3)c3ccccc31)C2 (centres unmarked) [N-hydroxy-4-(3H-spiro[isobenzofuran-1,4′-piperidine]-3-carbonyl)-2,3,4,5-tetrahydrobenzo[f][1,4]oxazepine-8-carboxamide] | 0.1 to 0.5
C[C@H]1COc2cc(C(=O)NO)ccc2CN1C(=O)[C@H]1CCCCO1 [(S)-N-hydroxy-3-methyl-4-((R)-tetrahydro-2H-pyran-2-carbonyl)-2,3,4,5-tetrahydrobenzo[f][1,4]oxazepine-8-carboxamide] | ≤ 0.1
O=C(NO)c1ccc2c(c1)OCCN(C(=O)C1CCC3(CCNCC3)C1)C2 (centres unmarked) [N-hydroxy-4-(8-azaspiro[4.5]decane-2-carbonyl)-2,3,4,5-tetrahydrobenzo[f][1,4]oxazepine-8-carboxamide] | ≤ 0.1
CCCNc1c(C(=O)N2CCOc3cc(C(=O)NO)ccc3C2)sc2ccccc12 [N-hydroxy-4-(3-(propylamino)benzo[b]thiophene-2-carbonyl)-2,3,4,5-tetrahydrobenzo[f][1,4]oxazepine-8-carboxamide] | ≤ 0.1
COC[C@H]1COc2cc(C(=O)NO)ccc2CN1C(=O)C1CCOCC1 [(S)-N-hydroxy-3-(methoxymethyl)-4-(tetrahydro-2H-pyran-4-carbonyl)-2,3,4,5-tetrahydrobenzo[f][1,4]oxazepine-8-carboxamide] | ≤ 0.1
COC(C(=O)N1CCOc2cc(C(=O)NO)ccc2C1)c1ccccc1 (centres unmarked) [N-hydroxy-4-(2-methoxy-2-phenylacetyl)-2,3,4,5-tetrahydrobenzo[f][1,4]oxazepine-8-carboxamide] | 0.1 to 0.5
CC(C)COc1ccc(C(C)(C)C(=O)N2CCOc3cc(C(=O)NO)ccc3C2)cc1 [N-hydroxy-4-(2-(4-isobutoxyphenyl)-2-methylpropanoyl)-2,3,4,5-tetrahydrobenzo[f][1,4]oxazepine-8-carboxamide] | 0.1 to 0.5
C[C@H]1COc2cc(C(=O)NO)ccc2CN1C(=O)CC1CCOCC1 [(S)-N-hydroxy-3-methyl-4-(2-(tetrahydro-2H-pyran-4-yl)acetyl)-2,3,4,5-tetrahydrobenzo[f][1,4]oxazepine-8-carboxamide] | 0.1 to 0.5
Cn1c(C(=O)N2CCOc3cc(C(=O)NO)ccc3C2)cc2ccccc21 [N-hydroxy-4-(1-methyl-1H-indole-2-carbonyl)-2,3,4,5-tetrahydrobenzo[f][1,4]oxazepine-8-carboxamide] | ≤ 0.1
O=C(NO)c1ccc2c(c1)OCCN(C(=O)Cc1cc(C(F)(F)F)cc(C(F)(F)F)c1)C2 [4-(2-(3,5-bis(trifluoromethyl)phenyl)acetyl)-N-hydroxy-2,3,4,5-tetrahydrobenzo[f][1,4]oxazepine-8-carboxamide] | 0.1 to 0.5
